In publication PMC5920526 (ACS catalysis, 2017):

How the values were obtained:
SpNanC [1] = assay: Substrate specificity of SpNanC with pNP-tagged α2–3-linked sialosides; format: biochemical, Streptococcus pneumoniae; settings: sialoside as substrate of SpNanC
SpNanC [2] = assay: Kinetics studies of SpNanC; format: biochemical, Streptococcus pneumoniae; settings: substance as substrate of SpNanC
SpNanB = SpNanB (Streptococcus pneumoniae serotype 4, UniProt Q54727); assay: Sialidase inhibition, Neu5Acα2–3GalβpNP as substrate; format: biochemical; settings: 0.1 mM inhibitor
CpNanH = CpNanH (Clostridium perfringens, UniProt P10481); format: biochemical
SpNanC [3] = assay: Sialidase inhibition, Neu5Acα2–3GalβpNP as substrate; format: biochemical, Streptococcus pneumoniae; settings: 0.1 mM inhibitor
SpNanA = SpNanA (Streptococcus pneumoniae, UniProt P62575); assay: biochemical; settings: for IC50: read-out: IC50 against SpNanA, Neu5Acα2–3GalβpNP as substrate; for inhibitory activity against SpNanA (in words): 0.1 mM inhibitor
CpNanI = format: biochemical, Clostridium perfringens; settings: 0.1 mM inhibitor
AuSialidase = AuSialidase (Paenarthrobacter ureafaciens, UniProt Q5W7Q2); assay: Sialidase inhibition, Neu5Acα2–3GalβpNP as substrate; format: biochemical, Arthrobacter ureafaciens; settings: for inhibitory activity against AuSialidase (in words): 0.1 mM inhibitor
VcSialidase = VcSialidase (Vibrio cholerae serotype O1, UniProt P0C6E9); assay: biochemical
PmST1 = PmST1 (Pasteurella multocida, UniProt Q15KI8); format: biochemical; settings: 0.1 mM inhibitor
BiNanH2 = BiNanH2 (Bifidobacterium longum subsp. infantis, UniProt A0ACD7UU12); assay: Sialidase inhibition, Neu5Acα2–3GalβpNP as substrate; format: biochemical; settings: for IC50: read-out: IC50 against BiNanH2, Neu5Acα2–3GalβpNP as substrate; for inhibitory activity against BiNanH2 (in words): 0.1 mM inhibitor
[4] = target: human cytosolic sialidase hNEU2 (Homo sapiens, UniProt Q9Y3R4); assay: as above; format: biochemical; settings: 0.1 mM inhibitor
human NEU1 = settings: cited from earlier work
viral sialidases = settings: cited from earlier work
recombinant SpNanC = settings: substance as substrate of previously reported recombinant SpNanC; cited from earlier work

## O=C(CF)NC1C(O)CC(OC2C(O)C(CO)OC(Oc3ccc([N+](=O)[O-])cc3)C2O)(C(=O)O)OC1C(O)C(O)CO (stereo not shown) [Neu5AcFα2–3GalβpNP]
SpNanC [1]
  Percentage conversion: 74.8 ± 3.2%

## [N-]=[N+]=NCC(=O)N[C@H]1[C@H]([C@H](O)[C@H](O)CO)O[C@@](O[C@H]2[C@@H](O)[C@@H](CO)O[C@@H](Oc3ccc([N+](=O)[O-])cc3)[C@@H]2O)(C(=O)O)C[C@@H]1O [Neu5AcN3α2–3GalβpNP]
SpNanC [1]
  Percentage conversion: 87.9 ± 1.6%

## COCC(=O)NC1C(O)CC(OC2C(O)C(CO)OC(Oc3ccc([N+](=O)[O-])cc3)C2O)(C(=O)O)OC1C(O)C(O)CO (stereo not shown) [Neu5AcOMeα2–3GalβpNP]
SpNanC [1]
  Percentage conversion: 81.8 ± 1.7%

## CC(=O)N[C@H]1[C@H]([C@H](O)[C@H](O)CO)OC(O[C@H]2[C@@H](O)[C@@H](CO)O[C@@H](Oc3ccc([N+](=O)[O-])cc3)[C@@H]2O)(C(=O)O)C[C@@H]1O (stereo partly shown) [Neu5Acα2–3GalβpNP]
SpNanC [2]
  Km: 2700 ± 500 µM
  kcat: 406.8 ± 39.0 s⁻¹
SpNanC [1]
  Percentage conversion: 85.1 ± 2.4%

## O=C(CO)NC1C(O)CC(OC2C(O)C(CO)OC(Oc3ccc([N+](=O)[O-])cc3)C2O)(C(=O)O)OC1C(O)C(O)CF (stereo not shown) [Neu5Gc9Fα2–3GalβpNP]
SpNanC [1]
  Percentage conversion: 72.3 ± 2.6%

## [N-]=[N+]=NCC(O)C(O)C1OC(OC2C(O)C(CO)OC(Oc3ccc([N+](=O)[O-])cc3)C2O)(C(=O)O)CC(O)C1NC(=O)CO (stereo not drawn) [Neu5Gc9N3α2–3GalβpNP]
SpNanC [1]
  Percentage conversion: 89.5 ± 3.5%

## COCC(O)C(O)C1OC(OC2C(O)C(CO)OC(Oc3ccc([N+](=O)[O-])cc3)C2O)(C(=O)O)CC(O)C1NC(=O)CO (stereo not shown) [Neu5Gc9OMeα2–3GalβpNP]
SpNanC [1]
  Percentage conversion: 75.0 ± 1.9%

## C[C@@H](O)[C@@H](O)[C@@H]1O[C@@](O[C@H]2[C@@H](O)[C@@H](CO)O[C@@H](Oc3ccc([N+](=O)[O-])cc3)[C@@H]2O)(C(=O)O)C[C@H](O)[C@H]1NC(=O)CO [Neu5Gc9deoxyα2–3GalβpNP]
SpNanC [1]
  Percentage conversion: 85.5 ± 1.4%

## O=C(CO)NC1C(O)CC(OC2C(O)C(CO)OC(Oc3ccc([N+](=O)[O-])cc3)C2O)(C(=O)O)OC1C(O)C(O)CO (stereo not shown) [Neu5Gcα2–3GalβpNP]
SpNanC [1]
  Percentage conversion: 80.6 ± 6.7%

## CC(=O)N[C@H]1[C@H]([C@H](O)[C@H](O)CO)OC(C(=O)O)=C[C@@H]1O [compound 6, 2,3-dehydro-2-deoxy-N-acetylneuraminic acid]
SpNanB
  inhibitory activity against SpNanB (in words): not effective inhibitors
CpNanH
  inhibitory activity against CpNanH (in words): not effective inhibitors
SpNanC [3]
  inhibitory activity against SpNanC (in words): not effective inhibitors
SpNanA; read-out: inhibition against SpNanA
  inhibition at 100 µM: > 50%
CpNanI
  inhibition against CpNanI: more than 50%
AuSialidase; read-out: inhibition against AuSialidase
  inhibition at 100 µM: > 50%
VcSialidase; read-out: inhibition against VcSialidase
  inhibition at 100 µM: > 50%
PmST1
  inhibitory activity against PmST1 (in words): not effective inhibitors
BiNanH2; read-out: inhibition against BiNanH2
  inhibition at 100 µM: > 50%

## O=C(CO)N[C@H]1[C@H]([C@H](O)[C@H](O)CO)OC(C(=O)O)=C[C@@H]1O [compound 7, 2,3-dehydro-2-deoxy-N-glycolylneuraminic acid]
SpNanB
  inhibitory activity against SpNanB (in words): not effective inhibitors
CpNanH
  inhibitory activity against CpNanH (in words): not effective inhibitors
SpNanC [3]
  inhibitory activity against SpNanC (in words): not effective inhibitors
VcSialidase
  inhibition against VcSialidase: more than 50%
[4]
  inhibition against hNEU2: more than 50%
PmST1
  inhibitory activity against PmST1 (in words): not effective inhibitors

## CC(=O)NC[C@@H](O)[C@@H](O)C1OC(C(=O)O)=CC(O)[C@H]1NC(C)=O (stereo partly shown) [compound 9, Neu5Ac9NAc2en]
SpNanB
  inhibitory activity against SpNanB (in words): not effective inhibitors
CpNanH
  inhibitory activity against CpNanH (in words): not effective inhibitors
SpNanC [3]
  inhibitory activity against SpNanC (in words): not effective inhibitors
SpNanA
  IC50: 11 ± 0.2 µM
AuSialidase
  inhibitory activity against AuSialidase (in words): lowered the inhibitory activity
VcSialidase
  inhibitory activity against VcSialidase (in words): lowered the inhibitory activity
[4]
  inhibitory activity against hNEU2 (in words): lowered the inhibitory activity
PmST1
  inhibitory activity against PmST1 (in words): not effective inhibitors
BiNanH2
  IC50: 33 ± 1 µM

## CC(=O)N[C@@H]1C(O)C=C(C(=O)O)OC1C[C@H](O)CO (stereo partly shown) [compound 10, Neu5Ac7deoxy2en]
SpNanB
  inhibitory activity against SpNanB (in words): not effective inhibitors
CpNanH
  inhibitory activity against CpNanH (in words): not effective inhibitors
SpNanC [3]
  inhibitory activity against SpNanC (in words): not effective inhibitors
SpNanA
  inhibitory activity against SpNanA (in words): selective inhibitory activity
  IC50: 10.7 ± 0.4 µM
CpNanI
  inhibitory activity against CpNanI (in words): selective inhibitory activity
AuSialidase
  inhibitory activity against AuSialidase (in words): selective inhibitory activity
AuSialidase; read-out: IC50 against AuSialidase, Neu5Acα2–3GalβpNP as substrate
  IC50: 17 ± 1 µM
VcSialidase
  inhibitory activity against VcSialidase (in words): not an effective inhibitor
[4]
  inhibitory activity against hNEU2 (in words): but not hNEU2
PmST1
  inhibitory activity against PmST1 (in words): not effective inhibitors
BiNanH2
  inhibitory activity against BiNanH2 (in words): not an effective inhibitor

## CCCCC(=O)NC[C@@H](O)[C@@H](O)[C@@H]1OC(C(=O)O)=C[C@H](O)[C@H]1NC(C)=O [compound 12, Neu5Ac9NPent2en]
Human NEU1
  selectivity against human NEU1: improved selectivity
SpNanB
  inhibitory activity against SpNanB (in words): not effective inhibitors
CpNanH
  inhibitory activity against CpNanH (in words): not effective inhibitors
SpNanC [3]
  inhibitory activity against SpNanC (in words): not effective inhibitors
SpNanA
  IC50: 10.5 ± 0.5 µM
AuSialidase
  inhibitory activity against AuSialidase (in words): lowered the inhibitory activity
VcSialidase
  inhibitory activity against VcSialidase (in words): lowered the inhibitory activity
[4]
  inhibitory activity against hNEU2 (in words): lowered the inhibitory activity
PmST1
  inhibitory activity against PmST1 (in words): not effective inhibitors
BiNanH2
  IC50: 34 ± 2 µM

## CC(=O)N[C@H]1[C@H]([C@H](O)[C@H](O)CNC(=O)C2CC2)OC(C(=O)O)=C[C@@H]1O [compound 13, Neu5Ac9NCyclopro2en]
Viral sialidases
  selectivity against viral sialidases: higher selectivity
SpNanB
  inhibitory activity against SpNanB (in words): not effective inhibitors
CpNanH
  inhibitory activity against CpNanH (in words): not effective inhibitors
SpNanC [3]
  inhibitory activity against SpNanC (in words): not effective inhibitors
SpNanA
  IC50: 6.8 ± 0.2 µM
AuSialidase
  inhibitory activity against AuSialidase (in words): lowered the inhibitory activity
VcSialidase
  inhibitory activity against VcSialidase (in words): lowered the inhibitory activity
[4]
  inhibitory activity against hNEU2 (in words): lowered the inhibitory activity
PmST1
  inhibitory activity against PmST1 (in words): not effective inhibitors
BiNanH2
  IC50: 29 ± 2 µM

## O=C(Cc1ccccc1)N[C@H]1[C@H]([C@H](O)[C@H](O)CO)OC(C(=O)O)=C[C@@H]1O [compound 15, Neu5PhAc2en]
SpNanB
  inhibitory activity against SpNanB (in words): not effective inhibitors
CpNanH
  inhibitory activity against CpNanH (in words): not effective inhibitors
SpNanC [3]
  inhibitory activity against SpNanC (in words): not effective inhibitors
SpNanA
  inhibitory activity against SpNanA (in words): not any bacterial sialidases tested
CpNanI
  inhibitory activity against CpNanI (in words): not any bacterial sialidases tested
AuSialidase
  inhibitory activity against AuSialidase (in words): not any bacterial sialidases tested
VcSialidase
  inhibitory activity against VcSialidase (in words): not any bacterial sialidases tested
[4]
  inhibitory activity against hNEU2 (in words): retained inhibitory activity
PmST1
  inhibitory activity against PmST1 (in words): not effective inhibitors
BiNanH2
  inhibitory activity against BiNanH2 (in words): not any bacterial sialidases tested

## CC(=O)N[C@H]1[C@H]([C@H](O)[C@H](O)CO)O[C@@](O[C@H]2[C@@H](O)[C@@H](CO)O[C@@H](O[C@H]3[C@H](O)[C@@H](O)C(O)O[C@@H]3CO)[C@@H]2O)(C(=O)O)C[C@@H]1O (stereo partly drawn) [α2–3-sialyllactose]
Recombinant SpNanC
  Km: 1080 ± 350 µM
  kcat: 0.313 ± 0.052 s⁻¹
